Test results published in publication PMC11523249, “Expanding the antiprotozoal activity and the mechanism of action of n-butyl and iso-butyl ester of quinoxaline-1,4-di-N-oxide derivatives against Giardia lamblia, Trichomonas vaginalis, and Entamoeba histolytica. An in vitro and in silico approach” (Journal of Enzyme Inhibition and Medicinal Chemistry, 2024).
Like-named read-outs stand apart in the source and are kept apart here.

Key:
G. lamblia WB strain = experiment: In vitro susceptibility assay, G. lamblia trophozoites; type: cell-based, Giardia lamblia
Method: (§1) G. lamblia WB strain, T. vaginalis GT3 strain, and E. histolytica strain HM1-IMSS were used in all experiments, all parasitic strains were obtained from the Unidad de Investigación Médica en Enfermedades Infecciosas y Parasitarias, Hospital de Pediatría, Instituto Mexicano del Seguro Social. In vitro susceptibility assays to determine IC50 values were performed using a method previously described. For this, 4 × 10^4 G. lamblia; 6 × 10^3 E. histolytica, or 4 × 10^4 T. vaginalis trophozoites were incubated for 48 h at 37 °C with different concentrations of quinoxaline derivatives T-137 to T-170 (0.5 ng/mL to 10 μg/mL) using dimethyl sulfoxide (DMSO) (0.05%) as solvent. Metronidazole and albendazole were used as positive controls, and parasites in the medium without drugs containing DMSO (0.05%) were included as negative controls. At the end of the incubation period, trophozoites were washed and subcultured for another 48 h in a fresh medium without drugs. Then, trophozoites were counted with a haemocytometer and the IC50 was calculated by Probit analysis. Experiments were carried out in triplicate and repeated at least twice.

T. vaginalis GT3 strain = experiment: In vitro susceptibility assay, T. vaginalis trophozoites; type: cell-based, Trichomonas vaginalis
Method: as §1

[1] = tested on: E. histolytica strain HM1-IMSS; experiment: In vitro susceptibility assay, E. histolytica trophozoites; type: cell-based, Entamoeba histolytica
Method: as §1

[2] = tested on: murine macrophage cell line J774.2; experiment: Cytotoxic evaluation, MTT colorimetric assay; type: cell-based; settings: murine macrophages J774.2, read-out: Cytotoxicity (Macrophages J774.2) (CC50)
Method: The murine macrophage cell line J774.2 was maintained in culture flasks with RPMI 1640 medium supplemented with 10% FBS, and 100 U/mL antibiotic-antifungal mixture (Gibco). Cells were incubated at 37 °C with 5% CO2 and humidity. Murine macrophage cell line J774.2 is maintained at Laboratorio de Estudios Epidemiológicos, Clínicos, Diseños Experimentales e Investigación, Facultad de Ciencias Químicas, Universidad Autónoma “Benito Juárez” de Oaxaca. Macrophages were washed and viability was assessed by the MTT colorimetric assay. In a 96-well microplate, 1 × 10^5 macrophages were added per well and a dose-response assay was performed. Compounds were evaluated using serial dilutions to determine half-maximal cytotoxic concentration (CC50) values in triplicate considering 0.2% DMSO as negative control.

[3] = target: T1, recombinant E. histolytica thioredoxin reductase (EhTRXR) (Entamoeba histolytica, UniProt C4LW95); experiment: Inhibition of EhTrxR DTNB reductase activity; type: biochemical; settings: pH 7, read-out: EhTrxR inhibitory effect (disulphide reductase activity)
T1 construct: His-tag (pET28a) (N); made in house; host or cells: E. coli BL21 (DE3)
T1 sequence (C4LW95 1-314): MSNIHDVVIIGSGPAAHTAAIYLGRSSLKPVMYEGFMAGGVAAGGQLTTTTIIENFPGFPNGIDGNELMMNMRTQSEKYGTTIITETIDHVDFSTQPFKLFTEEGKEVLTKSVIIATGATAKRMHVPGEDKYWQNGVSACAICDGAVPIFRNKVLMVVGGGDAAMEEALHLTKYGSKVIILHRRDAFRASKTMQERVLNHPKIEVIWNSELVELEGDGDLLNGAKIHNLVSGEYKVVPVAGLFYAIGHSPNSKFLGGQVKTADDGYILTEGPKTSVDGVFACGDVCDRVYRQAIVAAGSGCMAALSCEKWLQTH
Method: Recombinant E. histolytica thioredoxin reductase (EhTRXR) was expressed in E. coli BL21 (DE3) as His-tag (N-terminal) recombinant proteins using pET28a vector, and it was purified using IMAC as previously described. 5,5′-Dithiobis(2-nitrobenzoic acid) (DTNB) reductase activity was measured by monitoring the production of thionitrobenzoate at 405 nm in a reaction mixture comprising 50 mM potassium phosphate, pH 7.0, 2 mM EDTA, 300 µM NADPH, 5 mM DTNB, and 0.1 µM EhTRXR. Activity was calculated using the molar extinction coefficient at 405 nm of 13.6 mM^−1cm^− 1 and considering that 1 mol of NADPH yields 2 mol of thionitrobenzoate. The enzyme assays were performed at 30 °C, in a final volume of 50 μL, and using a Multiskan Ascent one-channel vertical light path filter photometer (Thermo Electron Co.). All results represent the arithmetic mean of at three independent experiments.

[4] = Giardia duodenalis, 48 h, read-out: G. lamblia (IC50 nM), trophozoites, 48 h at 37 °C, subcultured 48 h, Probit analysis
[5] = Trichomonas vaginalis, GT3, 48 h, read-out: T. vaginalis (IC50 nM), trophozoites, 48 h at 37 °C, subcultured 48 h, Probit analysis
[6] = Entamoeba histolytica, 48 h, read-out: E. histolytica (IC50 nM), trophozoites, 48 h at 37 °C, subcultured 48 h, Probit analysis
[7] = read-out: T. vaginalis (IC50 nM), trophozoites, 48 h at 37 °C, subcultured 48 h, Probit analysis

SMILES	IC50 (G. lamblia WB strain; [4]) [nM]	IC50 (T. vaginalis GT3 strain; [5]) [nM]	IC50 [1, 6] [nM]	IC50 (T. vaginalis GT3 strain; [7]) [nM]	Selectivity index, E. histolytica versus macrophages ([1]; CC50 J774.2 / IC50 E. histolytica) [fold]	CC50 [2] [nM]	inhibition at 100 µM [3] [%]	IC50 (G. lamblia WB strain; read-out: G. lamblia (IC50 nM), trophozoites, 48 h at 37 °C, subcultured 48 h, Probit analysis) [nM]	IC50 ([1]; read-out: E. histolytica (IC50 nM), trophozoites, 48 h at 37 °C, subcultured 48 h, Probit analysis) [nM]
CC(C)COC(=O)c1ccc2c(c1)[n+]([O-])c(C(=O)c1ccc3ccccc3c1)c(C(F)(F)F)[n+]2[O-] [Compound T-166]	41.3 ± 2.07	82.6 ± 4.13	50.6 ± 5.17	–	–	–	–	–	–
CCCCOC(=O)c1ccc2c(c1)[n+]([O-])c(C(=O)c1ccccc1)c(C)[n+]2[O-] [Compound T-142]	36.8 ± 0.66	< 90	9.2 ± 1.32	81.5 ± 3.95	1918	17600 ± 2140	50 to 75	–	–
CCCCOC(=O)c1ccc2c(c1)[n+]([O-])c(C(=O)c1ccccc1)c(C(F)(F)F)[n+]2[O-] [Compound T-148]	39.2 ± 3.46	< 90	16.1 ± 3.46	82.9 ± 8.06	–	48400 ± 1650	50 to 75	–	–
CCCCOC(=O)c1ccc2c(c1)[n+]([O-])c(C(=O)c1cccs1)c(C(F)(F)F)[n+]2[O-] [Compound T-149]	< 30	97.7 ± 9.09	18.2 ± 2.27	–	–	–	50 to 75	27.3 ± 2.27	–
CC(=O)c1c(C)[n+]([O-])c2ccc(C(=O)OCC(C)C)cc2[n+]1[O-] [Compound T-155]	–	192 ± 6.29	58.2 ± 1.57	–	–	87220 ± 213	50 to 75	–	–
CC(C)COC(=O)c1ccc2c(c1)[n+]([O-])c(C(=O)c1ccccc1)c(C(F)(F)F)[n+]2[O-] [Compound T-163]	34.5 ± 2.3	100 ± 5.76	57.6 ± 2.3	–	–	–	50 to 75	–	–
Cc1c(C(=O)c2ccccc2)[n+]([O-])c2cc(C(=O)OCC(C)C)ccc2[n+]1[O-] [Compound T-157]	43.4 ± 1.32	153 ± 6.58	55.2 ± 5.26	–	–	34200 ± 3040	50 to 75	–	–
Cc1c(C(=O)Nc2ccccc2)[n+]([O-])c2cc(C(=O)OCC(C)C)ccc2[n+]1[O-] [Compound T-158]	62 ± 1.27	164 ± 10.1	38 ± 2.53	–	–	> 200000	–	–	–
CC(C)COC(=O)c1ccc2c(c1)[n+]([O-])c(C(=O)c1ccco1)c(C(F)(F)F)[n+]2[O-] [Compound T-165]	101 ± 2.36	125 ± 2.36	30.6 ± 2.36	–	–	81800 ± 3590	–	–	–
CCCSc1ccc2nc(NC(=O)OC)[nH]c2c1 [Albendazole, reference compound]	49 ± 5.65	1830 ± 86.7	44000 ± 2470	–	–	–	–	–	–
CCCCOC(=O)c1ccc2c(c1)[n+]([O-])c(C(=O)OCc1ccccc1)c(C)[n+]2[O-] [Compound T-141]	70.7 ± 1.22	166 ± 6.1	~40	–	–	> 200000	–	–	40.2 ± 2.44
Cc1ncc([N+](=O)[O-])n1CCO [Metronidazole, reference compound]	1150 ± 40.9	210 ± 8.76	251 ± 5.48	–	–	–	–	–	–
